Assay results from patent US20250332173A1, “COMPOUNDS AND METHODS FOR MODULATING NUCLEIC ACID SPLICING” (REMIX THERAPEUTICS INC., priority 2021, published 2025).
Where two headings read alike, the source gives them in different places.

Key:
[1] = system: K562 (human chronic myelogenous leukemia) cells; experiment: Cell Titer Glo 2.0 cell viability assay; format: cell-based; details: Homo sapiens, K562, 72 h, K562 cells, 72 hours, Cell Titer Glo 2.0; read-out: K562 GI50
MYB = experiment: HiBiT protein abundance assay, MYB HiBiT K562 cell line; format: cell-based, human; details: 24 hours, top dose 10 μM
Summary of the method: (§1)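 Endogenous targets in K562 knock-in lines carried a HiBiT tag and were treated for 24 h at 37 °C with 10-point 3-fold dilutions (top 10 μM final, DMSO ≤0.25%). Abundance was read as lytic Nano-Glo HiBiT luminescence. IC50 came from a four-parameter logistic fit of normalized response.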

Target C = experiment: RT-qPCR splicing assay panel, Target C canonical junction (CJ) mRNA; format: cell-based, human; details: Homo sapiens; canonical junction qPCR panel, Table 5; read-out: Target C (decrease in CJ mRNA levels, IC50)
Summary of the method: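 Cells are plated (A673 allowed 24 h to adhere), dosed with an 11-point 3-fold series topping at 10 uM final, and incubated 24 h at 37 °C. Lysis is followed by cDNA synthesis and qPCR of the CJ transcript, normalized to a housekeeping gene.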

HTT = experiment: HiBiT protein abundance assay, HTT HiBiT K562 cell line; format: cell-based, human; details: 24 hours, top dose 10 μM
Summary of the method: as §1

[2] = HiBiT K562 cell line, read-out: Effect on protein abundance, MYB (IC50 category)
[3] = HiBiT K562 cell line, read-out: Effect on protein abundance, HTT (IC50 category)
[4] = HiBiT lytic detection, modified K562 cells, read-out: Effect on protein abundance, MYB (IC50)
[5] = HiBiT lytic detection, modified K562 cells, read-out: Effect on protein abundance, HTT (IC50)

| SMILES | GI50 [1] [nM] | IC50 (MYB; [2]) [nM] | IC50 (Target C) [nM] | IC50 (HTT; [3]) [nM] | IC50 (MYB; [4]) [nM] | IC50 (HTT; [5]) [nM] |
| --- | --- | --- | --- | --- | --- | --- |
| Cc1cn2cc(-c3ccc4c(=O)n(C5CCNCC5)ccc4n3)nc(C)c2n1 [Compound 1238, 2-(2,8-dimethylimidazo[1,2-a]pyrazin-6-yl)-6-(piperidin-4-yl)-1,6-naphthyridin-5(6H)-one] | > 10000 | > 10000 | > 10000 | > 10000 | – | – |
| Cc1cn2nc(-c3ccc4c(=O)n(C5CCNCC5)ncc4n3)cc(C)c2n1 [Compound 1247] | 100 to 1000 | – | 100 to 1000 | – | < 100 | < 100 |
| Cc1c(O)c(-c2ccc3c(=O)n(C4CCNCC4)cc(C)c3n2)cc2cn(C)nc12 [Compound 1284] | < 100 | < 100 | 100 to 1000 | < 100 | – | – |
| Cc1cn(C2CCNCC2)c(=O)c2ccc(-c3cc4cn(C)nc4c(F)c3O)nc12 [Compound 1285] | < 100 | < 100 | < 100 | < 100 | – | – |
| Cc1cn2cc(-c3ccc4c(=O)n(C5CCNCC5)ccc4n3)cc(C#N)c2n1 [Compound 1297] | 100 to 1000 | 100 to 1000 | 100 to 1000 | 100 to 1000 | – | – |
| Cc1cn2cc(-c3ccc4c(=O)n(C5CCNC5)ccc4n3)cc(F)c2n1 (centres unmarked) [Compound 1299] | 1000 to 10000 | 1000 to 10000 | > 10000 | > 10000 | – | – |
| Cc1c(O)c(-c2ncc3c(=O)n(C4CCC(N)CC4)ccc3n2)cc2cn(C)nc12 (centres unmarked) [Compound 1300, 6-((1s,4s)-4-aminocyclohexyl)-2-(6-hydroxy-2,7-dimethyl-2H-indazol-5-yl)pyrido[4,3-d]pyrimidin-5(6H)-one] | 100 to 1000 | 100 to 1000 | 1000 to 10000 | 100 to 1000 | – | – |
| Cc1cn2cc(-c3ncc4c(=O)n(C5CCNCC5)ccc4n3)cc(C#N)c2n1 [Compound 1301] | 100 to 1000 | 100 to 1000 | 1000 to 10000 | 100 to 1000 | – | – |
| Cc1c(O)c(-c2ncc3c(=O)n(N4CCNCC4)ccc3n2)cc2cn(C)nc12 [Compound 1303] | 100 to 1000 | 100 to 1000 | 100 to 1000 | 100 to 1000 | – | – |
| Cc1c(O)c(-c2ncc3c(=O)n(C4CCN(C)CC4)ccc3n2)cc2cn(C)nc12 [Compound 1304] | 100 to 1000 | 100 to 1000 | 1000 to 10000 | 100 to 1000 | – | – |
| Cc1c(O)c(-c2ncc3c(=O)n(C4CNC4)ccc3n2)cc2cn(C)nc12 [Compound 1305, 6-(azetidin-3-yl)-2-(6-hydroxy-2,7-dimethyl-indazol-5-yl)pyrido[4,3-d]pyrimidin-5-one] | 1000 to 10000 | 100 to 1000 | > 10000 | > 10000 | – | – |
| CCN1CCC(n2ncc3nc(-c4cc(C)c5nc(C)cn5n4)ccc3c2=O)CC1 [Compound 1308] | 100 to 1000 | – | 100 to 1000 | – | 100 to 1000 | < 100 |
| Cc1cn2nc(-c3ccc4c(=O)n(C5CCN(CCF)CC5)ncc4n3)cc(C)c2n1 [Compound 1309] | 100 to 1000 | – | 100 to 1000 | – | 100 to 1000 | 100 to 1000 |
| Cc1cn2nc(-c3ccc4c(=O)n(C5CCN(C)CC5)ncc4n3)cc(C)c2n1 [Compound 1311] | 100 to 1000 | – | 100 to 1000 | – | 100 to 1000 | 100 to 1000 |
| Cc1c(O)c(-c2ncc3c(=O)n(C45CCC(N)(CC4)C5)ccc3n2)cc2cn(C)nc12 [Compound 1428] | < 100 | < 100 | 1000 to 10000 | 1000 to 10000 | – | – |
| Cc1c(O)c(-c2ncc3c(=O)n([C@@H]4C[C@H]5CC[C@@H](C4)N5)ccc3n2)cc2cn(C)nc12 [Compound 1429, 6-[(1S,5R)-8-azabicyclo[3.2.1]octan-3-yl]-2-(6-hydroxy-2,7-dimethyl-indazol-5-yl)pyrido[4,3-d]pyrimidin-5-one] | 100 to 1000 | < 100 | 1000 to 10000 | 100 to 1000 | – | – |
| Cc1c(O)c(-c2ncc3c(=O)n([C@H]4C[C@@H](N)C4)ccc3n2)cc2cn(C)nc12 [Compound 1431, 6-((1s,3s)-3-aminocyclobutyl)-2-(6-hydroxy-2,7-dimethyl-2H-indazol-5-yl)pyrido[4,3-d]pyrimidin-5(6H)-one] | 1000 to 10000 | 100 to 1000 | 1000 to 10000 | 1000 to 10000 | – | – |
| Cc1c(O)c(-c2ncc3c(=O)n([C@H]4C[C@H](N)C4)ccc3n2)cc2cn(C)nc12 [Compound 1432, 6-((1r,3r)-3-aminocyclobutyl)-2-(6-hydroxy-2,7-dimethyl-2H-indazol-5-yl)pyrido[4,3-d]pyrimidin-5(6H)-one] | 100 to 1000 | 100 to 1000 | 1000 to 10000 | 1000 to 10000 | – | – |
| Cc1c(O)c(-c2ncc3c(=O)n([C@@H]4CCN[C@H](C)C4)ccc3n2)cc2cn(C)nc12 [Compound 1434, 2-(6-hydroxy-2,7-dimethyl-indazol-5-yl)-6-(2-methyl-4-piperidyl)pyrido[4,3-d]pyrimidin-5-one] | 100 to 1000 | 100 to 1000 | 1000 to 10000 | 100 to 1000 | – | – |
| Cc1cn2nc(-c3ccc4c(=O)n([C@H]5CCNC5)ccc4n3)cc(C)c2n1 [Compound 1437, 2-(2,8-dimethylimidazo[1,2-b]pyridazin-6-yl)-6-[(3S)-pyrrolidin-3-yl]-1,6-aphthyridin-5-one] | 1000 to 10000 | 100 to 1000 | 1000 to 10000 | 1000 to 10000 | – | – |
| Cc1c(O)c(-c2ncc3c(=O)n([C@H]4CCN[C@@H](C)C4)ccc3n2)cc2cn(C)nc12 [Compound 1441, 2-(6-hydroxy-2,7-dimethyl-indazol-5-yl)-6-(2-methyl-4-piperidyl)pyrido[4,3-d]pyrimidin-5-one] | < 100 | < 100 | 100 to 1000 | < 100 | – | – |
| Cc1c(O)c(-c2ncc3c(=O)n([C@@H]4C[C@H]5C[C@@H]4CN5)ccc3n2)cc2cn(C)nc12 [Compound 1445, 6-[(1R,4R,5R)-2-azabicyclo[2.2.1]heptan-5-yl]-2(6-hydroxy-2,7-dimethyl-indazol-5-yl)pyrido[4,3-d]pyrimidin-5-one] | 1000 to 10000 | 1000 to 10000 | > 10000 | > 10000 | – | – |

Continued, values first:

| GI50 [1] [nM] | IC50 (MYB; [2]) [nM] | IC50 (Target C) [nM] | IC50 (HTT; [3]) [nM] | IC50 (MYB; [4]) [nM] | IC50 (HTT; [5]) [nM] | SMILES |
| --- | --- | --- | --- | --- | --- | --- |
| 1000 to 10000 | > 10000 | > 10000 | > 10000 | – | – | Cc1cn2cc(-c3ccc4c(=O)n(C5CCNCC5)ccc4n3)c(O)cc2n1 [Compound 1240] |
| < 100 | < 100 | 1000 to 10000 | < 100 | – | – | Cc1cn2cc(-c3ccc4c(=O)n(C5CCNCC5)ccc4n3)cc(C)c2n1 [Compound 1241, 2-(2,8-dimethylimidazo[1,2-a]pyridin-6-yl)-6-(piperidin-4-yl)-1,6-naphthyridin-5(6H)-one] |
| < 100 | < 100 | 100 to 1000 | < 100 | – | – | Cn1cc2cc(-c3ccc4c(=O)n(C5CCNC6(CC6)C5)ccc4n3)c(O)cc2n1 (centres unmarked) [Compound 1242] |
| > 10000 | > 10000 | > 10000 | > 10000 | – | – | COc1c(-c2ccc3c(=O)n(C4CCNCC4)ccc3n2)cc2cn(C)nc2c1C [Compound 1243] |
| 100 to 1000 | 100 to 1000 | 1000 to 10000 | 100 to 1000 | – | – | Cn1cc2cc(-c3ccc4c(=O)n([C@@H]5CCNC6(CC6)C5)ccc4n3)c(O)cc2n1 [Compound 1246] |
| 100 to 1000 | < 100 | 100 to 1000 | < 100 | – | – | Cn1cc2nc(-c3ccc4c(=O)n(C5CCNCC5)ccc4n3)c(O)cc2n1 [Compound 1296] |
| > 10000 | > 10000 | > 10000 | > 10000 | – | – | Cc1cn2cc(-c3ccc4c(=O)n(C5CCNC5)ccc4n3)c(O)c(C)c2n1 (centres unmarked) [Compound 1302] |
| 100 to 1000 | – | 100 to 1000 | – | 100 to 1000 | 100 to 1000 | Cn1cc2cc(-c3ccc4c(=O)n(C5CCNC6(CC6)C5)ncc4n3)c(O)cc2n1 (centres unmarked) [Compound 1306] |
| 1000 to 10000 | – | 1000 to 10000 | – | 1000 to 10000 | 1000 to 10000 | CN1CCC(n2ncc3nc(-c4cc5cn(C)nc5cc4O)ccc3c2=O)CC1 [Compound 1307] |
| 100 to 1000 | – | 1000 to 10000 | – | 1000 to 10000 | 1000 to 10000 | CCN1CCC(n2ncc3nc(-c4cc5cn(C)nc5cc4O)ccc3c2=O)CC1 [Compound 1310] |
| < 100 | < 100 | 1000 to 10000 | 100 to 1000 | – | – | Cc1c(O)c(-c2ncc3c(=O)n([C@H]4CCNC(C)(C)C4)ccc3n2)cc2cn(C)nc12 [Compound 1436] |
| 1000 to 10000 | 100 to 1000 | 1000 to 10000 | 1000 to 10000 | – | – | Cc1cn2nc(-c3ccc4c(=O)n([C@@H]5CCNC5)ccc4n3)cc(C)c2n1 [Compound 1438, 2-(2,8-dimethylimidazo[1,2-b]pyridazin-6-yl)-6-[(3R)-pyrrolidin-3-yl]-1,6-naphthyridin-5-one] |
| 100 to 1000 | < 100 | 1000 to 10000 | 100 to 1000 | – | – | Cc1c(O)c(-c2ncc3c(=O)n(C4CCNC(C)(C)C4)ccc3n2)cc2cn(C)nc12 (centres unmarked) [Compound 1442] |
